Patent US20110225663A1, “METHOD FOR PRODUCING EUKARYOTIC ORGANISMS WITH ENHANCED PATHOGEN RESISTANCE AND/OR RESISTANCE TO STRESS AND EUKARYOTIC TRANSGENIC ORGANISMS WITH ENHANCED PATHOGEN RESISTANCE AND/OR RESISTANCE TO STRESS” (WESTFAELISCHE WILHELMS-UNIVERSITAET MUENSTER, priority 2008, published 2011)

Key:
[1] = test system: Arabidopsis glucose-6-phosphate dehydrogenase P2 (At1g24280), recombinant enzyme with C-terminal Strep-tag; settings: cited from earlier work
[2] = test system: NADPH oxidase
From the text: This leads to the formation of hypersensitive lesions in leaf tissue of resistant varieties after pathogen infection (incompatible interaction).

[3] = biological target: Arabidopsis thaliana glucose-6-phosphate dehydrogenase isoform At1g24280 (P2 class), N-terminally truncated without transit peptide (cP2, 5′ delta 195 bp) (Arabidopsis thaliana, UniProt Q8L743); experiment: biochemical
Arabidopsis thaliana glucose-6-phosphate dehydrogenase isoform At1g24280 (P2 class), N-terminally truncated without transit peptide (cP2, 5′ delta 195 bp), sequence (Q8L743 67-599): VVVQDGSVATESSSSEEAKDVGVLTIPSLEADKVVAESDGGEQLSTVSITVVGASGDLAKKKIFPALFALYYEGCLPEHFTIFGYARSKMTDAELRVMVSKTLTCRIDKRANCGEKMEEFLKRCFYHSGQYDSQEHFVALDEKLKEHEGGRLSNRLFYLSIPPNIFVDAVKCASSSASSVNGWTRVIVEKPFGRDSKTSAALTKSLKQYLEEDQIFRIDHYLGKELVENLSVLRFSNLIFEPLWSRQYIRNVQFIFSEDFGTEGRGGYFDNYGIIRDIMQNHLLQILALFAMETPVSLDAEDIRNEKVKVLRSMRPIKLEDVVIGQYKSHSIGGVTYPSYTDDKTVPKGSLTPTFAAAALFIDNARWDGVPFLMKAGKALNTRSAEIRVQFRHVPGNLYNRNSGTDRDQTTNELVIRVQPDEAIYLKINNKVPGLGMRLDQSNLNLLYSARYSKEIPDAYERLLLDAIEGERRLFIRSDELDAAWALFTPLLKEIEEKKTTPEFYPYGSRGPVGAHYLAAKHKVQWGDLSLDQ

[4] = test system: G6PDH; experiment: Inhibitor study with Glucosamine-6-P in tobacco leaves infected with P. nicotianae; format: in vivo
From the text: The involvement of the oxidative pentose phosphate pathway (OPPP) in the oxidative burst of plants was shown by inhibitor studies with Glucosamine-6 phosphate (Glucosamine-6-P). This is a well-known competitive inhibitor for G6PDH (as described in Glaser B L and Brown D H: Purification and properties of D-glucose 6-phosphate dehydrogenase, J Biol Chem 216, pp 67-79 (1955)), the first enzyme of the OPPP, which transforms G6P into 6-phosphogluconolactone.
Hydrogen peroxide (H2O2) accumulation was detected by in situ staining with 3,3-diaminobenzidine (DAB) following a modified protocol of Thordal-Christensen H, Zhang Z G, Wei Y D, Collinge D B: Subcellular localization of H2O2 in plants: H2O2 accumulation in papillae and hypersensitive response during the barley-powdery mildew interaction, Plant J 11, pp 1187-1194 (1997). Leaves were placed in DAB solution (1 mg mL^−1, pH 3.8) for 6 h. A dark-brown polymerization product formed at sites where DAB reacts with H2O2 produced by the tissue. Incubations were stopped and leaf tissue was simultaneously cleared from chlorophyll by boiling in ethanol for 10 min.

[5] = FIG. 2 bottom, infiltrated tobacco leaf

For `NC(=O)c1ccc[n+]([C@@H]2O[C@H](COP(=O)(O)OP(=O)(O)OC[C@H]3O[C@@H](n4cnc5c(N)ncnc54)[C@H](OP(=O)(O)O)[C@@H]3O)[C@@H](O)[C@H]2O)c1` [NADP+, nicotinamide-dinucleotide phosphate, oxidized form], the Km ([1]; read-out: Km[NADP+], Wakao and Benning (2005)) is listed as 17 µM.

With `c1ccc2c(c1)[I+]c1ccccc1-2` [DPI, diphenylene iodonium] the “defence-induced H2O2 production (DAB-staining) and formation of hypersensitive lesions” value [2, 5] was “Interference” and the “formation of hypersensitive lesions after infection with P. nicotianae” value ([2]; tobacco leaves treated with 25-100 mM DPI) was “did not induce the formation of hypersensitive lesions”.

In the case of `NC(=O)C1=CN([C@@H]2O[C@H](COP(=O)(O)OP(=O)(O)OC[C@H]3O[C@@H](n4cnc5c(N)ncnc54)[C@H](OP(=O)(O)O)[C@@H]3O)[C@@H](O)[C@H]2O)C=CC1` [NADPH, nicotinamide-dinucleotide phosphate, reduced form], the Ki ([1]; Wakao and Benning (2005), read-out: Ki[NADPH]) is listed as 22 µM and the Ki [3] is listed as 4.6 µM.

In the case of `N[C@@H]1[C@@H](O)[C@H](O)[C@@H](COP(=O)(O)O)O[C@@H]1O` [GN6P, Glucosamine-6 phosphate], the “defence-induced H2O2 production (DAB-staining) and formation of hypersensitive lesions” value [4, 5] is reported as “Interference” and the “ROS production after infection with P. nicotianae” value ([4]; tobacco leaves treated with 25-50 mM GN6P) is reported as “did not result in detectable ROS production”.
